Assay: xn = mol fraction of the nth substance listed
Settings: 100 kPa, Liquid; for viscosity: Capillary tube (Ostwald / Ubbelohde) method; for speed of sound: Frequency=2 MHz, Single path-length method; for mass density: Vibrating tube method

C=COCCCC [1-(ethenyloxy)butane] + C=COC(C)=O
Settings	mass density, 303.15 K [kg/m3]	mass density, 308.15 K [kg/m3]	mass density, 313.15 K [kg/m3]	speed of sound, 303.15 K [m/s]	speed of sound, 308.15 K [m/s]	speed of sound, 313.15 K [m/s]	viscosity, 303.15 K [mPa·s]	viscosity, 308.15 K [mPa·s]	viscosity, 313.15 K [mPa·s]
x2 = 0	769	763.9	758.8	1086	1076	1066	0.386	0.373	0.352
x2 = 0.1022	779.6	774.4	769.1	1086	1076	1066	0.385	0.368	0.35
x2 = 0.2014	790.7	785.4	780	1086	1076	1065	0.381	0.364	0.344
x2 = 0.2948	801.9	796.5	791	1087	1075	1064	0.377	0.36	0.339
x2 = 0.4002	815.6	810	804.4	1087	1075	1064	0.374	0.357	0.338
x2 = 0.502	829.9	824.1	818.3	1087	1074	1062	0.372	0.355	0.336
x2 = 0.5997	844.6	838.7	832.8	1088	1074	1062	0.373	0.357	0.337
x2 = 0.6979	860.6	854.5	848.4	1088	1074	1061	0.375	0.358	0.338
x2 = 0.7949	877.7	871.6	865.3	1089	1074	1059	0.378	0.36	0.341
x2 = 0.8999	898	891.9	885.5	1090	1074	1057	0.383	0.365	0.346

C=COC(C)=O [vinyl acetate] + COc1ccccc1
Settings	mass density, 303.15 K [kg/m3]	mass density, 308.15 K [kg/m3]	mass density, 313.15 K [kg/m3]	speed of sound, 303.15 K [m/s]	speed of sound, 308.15 K [m/s]	speed of sound, 313.15 K [m/s]	viscosity, 303.15 K [mPa·s]	viscosity, 308.15 K [mPa·s]	viscosity, 313.15 K [mPa·s]
x1 = 0.0981	979.4	974.6	969.5	1350	1329	1310	0.843	0.775	0.724
x1 = 0.199	974	969	963.8	1316	1294	1274	0.766	0.708	0.664
x1 = 0.3015	968.3	963.1	957.8	1283	1260	1239	0.696	0.647	0.609
x1 = 0.3972	962.6	957.4	951.9	1253	1230	1208	0.638	0.595	0.562
x1 = 0.5005	956.2	950.8	945.2	1223	1199	1177	0.583	0.546	0.515
x1 = 0.5979	949.8	944.2	938.5	1194	1171	1150	0.535	0.503	0.476
x1 = 0.6988	942.8	937	931.1	1167	1144	1122	0.492	0.464	0.439
x1 = 0.8029	935.1	929.2	923.1	1139	1118	1096	0.451	0.427	0.406
x1 = 0.9005	927.5	921.5	915.3	1115	1095	1074	0.418	0.397	0.377
x1 = 1	919.4	913.5	907.3	1092	1074	1054	0.388	0.37	0.352

C=COC(C)=O [vinyl acetate] + CC(C)OC(C)C
Settings	mass density, 303.15 K [kg/m3]	mass density, 308.15 K [kg/m3]	mass density, 313.15 K [kg/m3]	speed of sound, 303.15 K [m/s]	speed of sound, 308.15 K [m/s]	speed of sound, 313.15 K [m/s]	viscosity, 303.15 K [mPa·s]	viscosity, 308.15 K [mPa·s]	viscosity, 313.15 K [mPa·s]
x1 = 0.1031	727.4	722.1	716.5	990	970	948	0.308	0.293	0.28
x1 = 0.1977	741.4	736	730.4	996	976	955	0.313	0.297	0.284
x1 = 0.3004	757.8	752.3	746.6	1004	985	964	0.318	0.302	0.288
x1 = 0.4002	775	769.4	763.7	1013	993	972	0.324	0.307	0.294
x1 = 0.5001	793.8	788.1	782.3	1022	1002	982	0.33	0.313	0.299
x1 = 0.6027	814.8	809.1	803.2	1032	1012	992	0.338	0.32	0.306
x1 = 0.7001	836.9	831	825	1042	1024	1003	0.347	0.329	0.313
x1 = 0.801	861.9	856	849.8	1056	1038	1016	0.359	0.34	0.323
x1 = 0.9014	889.5	883.5	877.2	1072	1053	1032	0.372	0.353	0.335
x1 = 1	919.4	913.5	907.3	1092	1074	1054	0.388	0.37	0.352

C=COC(C)=O [vinyl acetate] + CCCCOCCCC
Settings	mass density, 303.15 K [kg/m3]	mass density, 308.15 K [kg/m3]	mass density, 313.15 K [kg/m3]	speed of sound, 303.15 K [m/s]	speed of sound, 308.15 K [m/s]	speed of sound, 313.15 K [m/s]	viscosity, 303.15 K [mPa·s]	viscosity, 308.15 K [mPa·s]	viscosity, 313.15 K [mPa·s]
x1 = 0.0956	767.4	763	758.2	1141	1123	1107	0.575	0.54	0.509
x1 = 0.1922	776.2	771.6	767	1136	1118	1100	0.549	0.517	0.489
x1 = 0.3008	787.4	782.6	777.8	1131	1112	1093	0.522	0.493	0.467
x1 = 0.3962	798.4	793.5	788.5	1126	1107	1087	0.499	0.472	0.447
x1 = 0.5008	812.2	807.1	801.9	1120	1102	1080	0.476	0.451	0.427
x1 = 0.5997	827.4	822	816.6	1115	1096	1074	0.455	0.431	0.409
x1 = 0.6995	845	839.4	833.7	1110	1091	1068	0.436	0.414	0.393
x1 = 0.7995	865.6	859.8	853.8	1104	1085	1063	0.417	0.398	0.379
x1 = 0.8998	890	883.8	877.6	1099	1080	1058	0.401	0.383	0.365
x1 = 1	919.4	913.5	907.3	1092	1074	1054	0.388	0.37	0.352
